# Laboratory results: patent US20090118135A1, “METHODS AND COMPOUNDS FOR REGULATING APOPTOSIS” (The Burnham Institute, priority 2007, published 2009)
# Target: T1, GST-Bfl-1 (Homo sapiens, UniProt Q16548)
# T1 construct: lacking their C-terminal transmembrane domains (about the last 20 amino acids) (“ΔTM”); made in house; host or cells: XL-1 Blue E. coli, pGEX 4T-1
# T1 sequence (Q16548 1-155 limits assumed): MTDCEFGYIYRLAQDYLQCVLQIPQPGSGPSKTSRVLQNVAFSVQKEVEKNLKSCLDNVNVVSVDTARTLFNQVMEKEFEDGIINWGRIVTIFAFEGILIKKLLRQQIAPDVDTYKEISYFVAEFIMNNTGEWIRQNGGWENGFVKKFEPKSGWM
# Experiment: Bfl-1/FITC-Bid BH3 competitive fluorescence polarization assay
# Assay type: binding
# Conditions: primary HTS hits, MLSCN library (PubChem SIDs), Table 5B
# Procedure: A FPA was performed to determine the binding affinity of FITC-Bid BH3 peptide to Bcl-2 proteins. […] IC50 determinations were performed using GraphPad Prism software (GraphPad, Inc., San Diego, Calif.). FPA competition assays were performed using the same procedure described above, except that 100 nM of GST-Bfl-1 protein in a volume of 45 μl was incubated with 5 μl (50 μM) test compounds in DMSO per well for 30 min prior to addition of 50 μl (5 nM) FITC-Bid BH3 peptide. The final DMSO concentration was 5% when the reactions brought to fall volume of 100 μl. Fluorescence polarization was measured after 10 min. Compounds that reduced the fluorescence polarization by 50% were considered hits.
% Activity,FRatio,Compound
80.1%,0.72,O=C(c1cnccn1)N1CCc2ccccc21 [Compound 3713383]
55.4%,0.95,O=C(COC(=O)c1cncc(Br)c1)NCc1ccco1 [Compound 3715512]
75.7%,0.44,CSc1ccccc1NC(=O)c1noc2c1CCC2 [Compound 4244309]
67.6%,0.84,COc1ccc(C(N)CCc2ccc(C)o2)cc1 (stereo not shown) [Compound 4244526]
72.8%,0.46,COC(=O)c1ccccc1NC(=O)c1noc2c1CCC2 [Compound 4245926]
88.5%,0.81,COc1ccc(-c2nc3n(n2)C(c2cccnc2)C(C(N)=O)=C(C)N3)cc1 (stereo not shown) [Compound 4250160]
50.8%,0.86,O=C(NCCCN1CCN(Cc2ccccc2)CC1)C1CCN(c2nnc(-n3cccc3)s2)CC1 [Compound 4250401]
69.9%,0.59,C=CCNS(=O)(=O)c1nc(C)c(Cl)c(C)c1C#N [Compound 4251530]
78.1%,0.86,CCOC(=O)N1CCN(c2cc(NCCC(=O)O)c3c4c(onc24)-c2ccccc2C3=O)CC1 [Compound 4252106]
63.2%,0.83,Nc1nc(-c2ccco2)nn1C(=O)CCc1ccccc1 [Compound 4254649]
54.7%,0.6,Cc1nc2ccc(C(=O)O)cc2c2c1CC(C)S2 (stereo not shown) [Compound 4259932]
93.8%,0.72,c1ccc(CSc2nnc(-c3ccco3)c(-c3ccco3)n2)cc1 [Compound 4260465]
69.6%,1.46,CCOc1ccc2nc(O)c(O)nc2c1 [Compound 4261310]
50.9%,1.19,CCCC1=C(C(=O)OCC)C(c2cc(Cl)cc(OC)c2OCC(=O)OCC)NC(=O)N1 (stereo not shown) [Compound 4262430]
111.5%,0.4,CCOC(=O)c1ccc2c(c1)C1C=CCC1C(C(=O)O)N2 (stereo not shown) [Compound 4263567]
58.8%,0.88,COc1ccc(N2C(=O)c3cccc4cccc(c34)C2=O)nn1 [Compound 4265126]
75.3%,0.59,COc1ccccc1-c1nnc2sc(-c3cnccn3)nn12 [Compound 4265558]
51.8%,0.97,O=C(NCCN1CCCCCC1)C1CCC(CNS(=O)(=O)c2cccc3cccnc23)CC1 (stereo not shown) [Compound 7969436]
79.2%,0.82,Cc1cccc(OCC(=O)Nc2ccc(S(=O)(=O)N3CCCC3)cc2)c1 [Compound 7973703]

# Further lines, the compound ahead of its results:
Compound,% Activity,FRatio
COc1ccc(S(=O)(=O)N2CCCC2C(=O)Nc2nnc(-c3cccnc3)s2)cc1 (stereo not shown) [Compound 3713012],50.9%,0.9
Cc1ccc(OCCC(=O)OCC(=O)Nc2ccc(Cl)cn2)cc1 [Compound 3713376],54.8%,1.43
FC(F)(F)c1cnc(Nc2ccc(N3CCOCC3)cc2)c(Cl)c1 [Compound 3713921],51.4%,0.51
COc1ccc(NC(=O)c2cc(CN3C(=O)c4ccccc4C3=O)ccc2OC)cn1 [Compound 3713992],66.9%,1.47
CC(C)CN(C(=O)COC(=O)c1cc2c(s1)CCC2)C1CCS(=O)(=O)C1 (stereo not shown) [Compound 3714271],53.1%,0.67
CCOc1ccc(C(=O)OCC(=O)NCc2ccco2)cc1OCC [Compound 3714498],71.4%,1
COc1cc(CC(=O)OCC(=O)Nc2ncc(Cl)cc2Cl)cc(OC)c1OC [Compound 3714968],54%,1.42
CC(=N)/C(C#N)=C(/O)CSc1nnc(Nc2c(C)cccc2C)s1 [Compound 3715042],63.1%,0.63
O=C(NCc1ccco1)c1c2c(nc3ccccc13)CCC2 [Compound 3715091],62.4%,0.86
Cn1c(C(C#N)C2=C(Cl)C(=O)N(c3ccccc3)C2=O)nc2ccccc21 (stereo not shown) [Compound 3716185],89.8%,0.68
C=CCn1c(SCc2cc(=O)n3ccsc3n2)nnc1C1CCCCC1 [Compound 3716212],54.8%,0.6
Cc1ccc(S(=O)(=O)N2CCCCC2)cc1C(=O)Nc1nc[nH]n1 [Compound 3716232],50.5%,0.86
COCCn1c(SCC(=O)Nc2ncc(Cl)c(C)c2Cl)nc2ccccc21 [Compound 3717339],64.7%,0.94
CC(=N)/C(C#N)=C(/O)CSc1nnc(NC(C)C)s1 [Compound 3717601],84.1%,0.47
CCn1ccc(C(=O)Nc2ccc(S(=O)(=O)Nc3ccccc3OC)cc2)n1 [Compound 4241115],82%,0.87
O=C(CSc1nc(O)c2ccccc2n1)c1ccc(O)c(O)c1 [Compound 4242102],64.2%,0.57
O=C(O)c1cccc(-n2cccc2/C=N/O)c1 [Compound 4243236],70%,0.86
Cc1c(C(=O)OCC2CCCO2)[nH]c2c1C(=O)CC(c1ccco1)C2 (stereo not shown) [Compound 4244684],54.3%,0.79
COc1ccc(-c2coc3c(CN4CCCCC4)c(O)c(CN4CCCCC4)c(O)c3c2=O)cc1 [Compound 4244723],82.5%,0.51
O=C(NCc1ccccn1)c1ccc2nc(-c3ccco3)c(-c3ccco3)nc2c1 [Compound 4245216],107.1%,1.18
Cc1cc(C)c2cc3c(ccn3C3OC[C@H](O)[C@H](O)[C@H]3O)cc2n1 (stereo partly shown) [Compound 4247900],52.1%,1.1
COC(=O)CNc1c(-c2ccccn2)nc2ccc(Br)cn12 [Compound 4251133],51.2%,1.16

Compound,% Activity,FRatio
O=c1c2cc(N3CCOCC3)ccc2[nH]c(=S)n1CCCN1CCCCCC1 [Compound 4251175],62.3%,0.65
Cc1cc(C)nc(Nc2ccc(N3CCCC3)cc2)n1 [Compound 4256031],108.1%,0.2
CCOc1ccc(C(=O)Nc2ccc(N3CCN(C)CC3)cc2)cc1Br [Compound 4256635],70%,0.53
Cc1ccc(CNc2ccc3c(c2)OCO3)cc1 [Compound 4257119],50.6%,1.2
COc1ccc2c(c1)c(=O)oc1cc(OCC(=O)N3CCC(C)CC3)ccc12 [Compound 4257486],104.8%,0.49
Cc1ccc(C)n1-c1cccc(C(=O)O)c1 [Compound 4257870],95.8%,0.65
O=C(Nc1ccccc1)c1ccc2nc(-c3ccco3)c(-c3ccco3)nc2c1 [Compound 4258186],52.2%,0.88
O=C(Nc1ccc2nc(-c3ccco3)c(-c3ccco3)nc2c1)N1CCCCCC1 [Compound 4258795],83.2%,0.96
COCc1cc(C2SCC(=O)Nc3c2c(O)nn3C(C)C)ccc1OC (stereo not shown) [Compound 4258907],67.1%,1.2
CCCCCc1nnc(NC(=O)Cc2cccs2)s1 [Compound 4259217],69.2%,0.51
CC(=O)c1sc2nc(SCC(=O)N3CCCCC3)nc(O)c2c1C [Compound 4259313],57%,0.82
COC(=O)c1cccc(NC(=O)CSc2nc(C)cc(O)n2)c1 [Compound 4262437],59.9%,0.64
Cc1ccc2cccc(S(=O)(=O)Nc3ccc4c(c3)OCO4)c2n1 [Compound 4262919],80.6%,0.67
c1cc2c3c(cccc3c1)NC1(CCCCCC1)N2 [Compound 4263637],64.3%,0.58
Cc1cc2c(cc1C)NC(c1c(C)n(C)n(-c3ccccc3)c1=O)C1=C(O)CC(C)(C)CC1=N2 (stereo not shown) [Compound 4265815],58.3%,1.46
COc1ccc(Nc2cc(C)nc3nc(C)nn23)cc1Cl [Compound 7967129],82.3%,1.11
CN(C)c1ccc(NC(=O)Cn2cc3c(n2)CCCC3)cc1 [Compound 7968138],57.6%,0.56
COc1ccc(N2Cc3cccc(C(=O)O)c3C2=O)cc1 [Compound 7969281],113.7%,0.86
Cc1csc2nc(CNS(=O)(=O)N(C)C)cn12 [Compound 7970333],53.8%,0.96
CCOC(=O)C1=C(C)S/C(=C\N(C)C)C1=O [Compound 7972859],68.4%,0.91
C=CCSc1nnc2nc3c(nn12)c1cc(C)ccc1n3CC=C [Compound 7973953],69.4%,0.82
